From article PMC13286573, “Exploration of precision coregulator TR-FRET identifies diverse signatures for LXR ligands relevant to discovery of nonlipogenic ABCA1 inducers” (eLife, 2026)

What was measured:
LXRα [1] = molecular target: T1, LXRα (Homo sapiens, UniProt Q13133); experiment: NCOR2 corepressor binding to LXRα, CRT; assay type: biochemical; set-up: The CRT selectivity assay incorporates GST-tagged LXR-LBD; purchased Thermo Fisher Scientific PV4657; details: for activity at 1 µM: ligand 1 µM, interpolated from concentration-response, normalized, heat map Figure 9A, read-out: NCOR2α, relative % activity at 1 μM; for Effect on NCOR2 binding to LXRα: monoplex CRT, absence of SRC1
T1 sequence (Q13133 209-447 limits assumed): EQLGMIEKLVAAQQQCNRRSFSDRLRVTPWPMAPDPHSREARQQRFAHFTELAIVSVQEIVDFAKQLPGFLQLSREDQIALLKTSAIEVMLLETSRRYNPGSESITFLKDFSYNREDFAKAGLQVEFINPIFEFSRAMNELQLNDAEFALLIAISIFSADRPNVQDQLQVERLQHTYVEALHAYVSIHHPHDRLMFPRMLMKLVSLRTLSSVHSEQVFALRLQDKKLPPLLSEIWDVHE

PXR = molecular target: T2, PXR (Homo sapiens, UniProt O75469); experiment: Coactivator SRC1-4 recruitment Lanthascreen PXR; assay type: biochemical; details: benchmark SR12813
T2 sequence (O75469 146-433 limits assumed): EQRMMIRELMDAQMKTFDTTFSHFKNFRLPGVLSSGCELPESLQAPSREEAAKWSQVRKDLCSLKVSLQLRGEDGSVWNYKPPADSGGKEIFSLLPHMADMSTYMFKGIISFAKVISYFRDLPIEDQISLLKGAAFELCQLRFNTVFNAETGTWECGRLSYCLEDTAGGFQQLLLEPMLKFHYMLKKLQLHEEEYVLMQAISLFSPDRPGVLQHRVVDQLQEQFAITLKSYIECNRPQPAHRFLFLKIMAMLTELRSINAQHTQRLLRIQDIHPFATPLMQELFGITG

LXRα [2] = molecular target: T1, LXRα; experiment: SMRT2 corepressor binding to LXRα, CRT; assay type: biochemical; set-up: The CRT selectivity assay incorporates GST-tagged LXR-LBD; purchased Thermo Fisher Scientific PV4657; details: for activity at 1 µM: ligand 1 µM, interpolated from concentration-response, normalized, heat map Figure 9A, read-out: SMRT2α, relative % activity at 1 μM
LXRβ [3] = molecular target: T3, LXRβ (Homo sapiens, UniProt P55055); experiment: SMRT2 corepressor binding to LXRβ, CRT; assay type: biochemical; set-up: The CRT selectivity assay incorporates GST-tagged LXR-LBD; purchased Thermo Fisher Scientific PV4660; details: for activity at 1 µM: read-out: SMRT2β, relative % activity at 1 μM
T3 sequence (P55055 222-460 limits assumed): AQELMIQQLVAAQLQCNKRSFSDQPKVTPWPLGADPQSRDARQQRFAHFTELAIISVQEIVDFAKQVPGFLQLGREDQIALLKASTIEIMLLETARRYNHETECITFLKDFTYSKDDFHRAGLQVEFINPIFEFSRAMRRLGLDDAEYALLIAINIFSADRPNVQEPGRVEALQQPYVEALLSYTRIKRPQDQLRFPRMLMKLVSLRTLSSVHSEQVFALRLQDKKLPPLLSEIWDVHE

Hamsters = test system: Hamsters; set-up: method as in Groot et al., 2005; details: ref Groot et al., 2005; cited from earlier work
LXR [4] = experiment: Multiplex precision CRT (pCRT), SRC1 and NCOR2, LXR isoform not specified; assay type: biochemical; details: pCRT versus monoplex CRT
LXRα [5] = molecular target: T1, LXRα; set-up: The CRT selectivity assay incorporates GST-tagged LXR-LBD; purchased Thermo Fisher Scientific PV4657; method as in Albers et al., 2006; details: >1 µM; ref Albers et al., 2006; cited from earlier work
C57Bl/6 mice = test system: C57Bl/6 mice; set-up: method as in Miao et al., 2004; details: ref Miao et al., 2004, cited from earlier work
LXRβ [6] = molecular target: T3, LXRβ; experiment: SRC-1 coactivator recruitment to LXRβ, coregulator TR-FRET (CRT); assay type: biochemical; set-up: The CRT selectivity assay incorporates GST-tagged LXR-LBD; purchased Thermo Fisher Scientific PV4660
cynomolgus monkeys = test system: cynomolgus monkeys; set-up: method as in Groot et al., 2005; details: ref Groot et al., 2005; cited from earlier work
LXRβ [7] = molecular target: T3, LXRβ; experiment: NCOR2 corepressor binding to LXRβ, CRT; assay type: biochemical; set-up: The CRT selectivity assay incorporates GST-tagged LXR-LBD; purchased Thermo Fisher Scientific PV4660; details: for Effect on NCOR2 binding to LXRβ: monoplex CRT, absence of SRC1; for activity at 1 µM: read-out: NCOR2β, relative % activity at 1 μM
[8] = test system: sterol response element (SRE); experiment: SRE-luc reporter assay in HepG2 cells; assay type: cell-based, human
From the text: Our phenotypic high-throughput screen (HTS) approach to identify nonlipogenic ABCA1 Inducers (NLAI) originally used counterscreening with a SREBP1c-luciferase reporter (linked to the SREBF1 gene promoter) in human hepatocarcinoma HepG2 cells ([Ben Aissa et al., 2021]). Unwanted lipogenesis is mediated by LXR agonists via direct transcriptional activation and indirectly by the effects of SREBP1c ([Schultz et al., 2000]; [Brown and Goldstein, 1997]). SREBP1c enhances transcription of genes required for synthesis of fatty acids and TG and as the dominant isoform in liver is associated most closely with lipogenesis and TG elevation ([Brown and Goldstein, 1997]). […] Binding of SREBP1c to the sterol response element (SRE) induces transcription of lipogenic genes associated with elevated TG. To better model the lipogenic axis in hepatocytes, we use HepG2 cells stably transfected with a nanoluciferase reporter downstream of a SRE promoter (SRE-luc), activation of which requires SREBP1c maturation.
HepG2 cells were cotransfected with SRE (LDLR)-NlucP SuperPiggyBac Transposon and a separate Transposase plasmid (System Biosciences). Cells were expanded for multiple passages followed by selection with puromycin (1 μg/ml). Stable cells constitutively express GFP allowed for FACS enrichment and/or cell cloning. Initially, stable pools were compared to low expressing and high expressing enriched pools. The optimal pool was selected based on assay performance (Z’) and was grown and maintained as above, with the addition of 1.0 μg/mL of puromycin biweekly.
Cells were split into flasks containing CS medium (EMEM supplemented with 10% charcoal stripped FBS (Gibco A52567-01)) and 1% P/S and grown at 37 °C /5% CO2 for 48 hr before plating. Cells were plated in 384-well, white clear tissue culture plates (Greiner 781098) and allowed to grow at 37 °C /5% CO2 for 24 hr before medium was aspirated and compound dilutions prepared in CS medium were added. Following a 24 hr incubation, the medium was aspirated, and cells were lysed/luminescence quantified using the Nano-Glo Luciferase Assay System (Promega N1130).

mice = test system: mice; set-up: method as in Kick et al., 2015; Kirchgessner et al., 2015; details: highest dose 30 mg/kg qd, ref Kick et al., 2015, Kirchgessner et al.; cited from earlier work
LXR [9] = experiment: Corepressor (NCOR2, SMRT2) binding to LXR, CRT, statements across isoforms; assay type: biochemical; details: monoplex CRT, absence of coactivator
RXRα = molecular target: T4, RXRα (Homo sapiens, UniProt P19793); experiment: Coactivator D22 recruitment Lanthascreen RXRα; assay type: biochemical; details: normalized to SR11237
T4 construct: the reductionist system of NR-LBD with short coregulator peptides as used in the present work; purchased Thermo Fisher Scientific PV4799

[10] = ligand 1 µM, interpolated from concentration-response, normalized, heat map Figure 9A

T4 sequence (P19793 227-458 limits assumed): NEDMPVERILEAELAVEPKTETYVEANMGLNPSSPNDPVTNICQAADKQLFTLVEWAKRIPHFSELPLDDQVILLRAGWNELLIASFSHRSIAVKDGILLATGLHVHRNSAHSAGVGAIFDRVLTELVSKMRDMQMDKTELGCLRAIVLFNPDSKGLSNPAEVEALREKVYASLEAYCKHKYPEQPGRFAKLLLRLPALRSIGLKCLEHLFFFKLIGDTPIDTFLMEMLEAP

For `O=C(O)Cc1cccc(OCCCN(Cc2cccc(C(F)(F)F)c2Cl)CC(c2ccccc2)c2ccccc2)c1` [GW3965], the activity at 1 µM (LXRα [1]) was 99.1%, the “Effect on NCOR2 binding to LXRα” value (LXRα [1]) was “displacement of NCOR2 from both LXR isoforms” and the “PXR agonism/binding in CRT” value (PXR) was “no binding to PXR”. The activity at 1 µM (LXRα [2]) was 92.4%, the activity at 1 µM (LXRβ [3]) was 92.5% and the “Plasma TG, LDL-C and VLDL-C” value (Hamsters) was “dose-dependent increase”. The “Left-shift in the NCOR2 displacement curve in presence of SRC1” value (LXR [4]) was 100 fold, the “Recruitment of NCOR1 to LXRα” value (LXRα [5]) was “Weak recruitment of NCOR1 to LXRα” and the “Liver weight and TGs” value (C57Bl/6 mice; 3 days treatment, GW3965 even at 100 mg/kg/day) was “no effect on these liver markers”. For the same compound, the “SREBP1c and FAS expression in the liver” value (C57Bl/6 mice; 3 days treatment) was “minimal increases in SREBP1c and FAS expression in the liver”, the “ABCA1 expression in peripheral macrophages” value (C57Bl/6 mice) was “sevenfold” and the “ABCA1 expression in the small intestine” value (C57Bl/6 mice) was “eightfold”. For the same compound, the “SRC1β, relative % activity at 1 μM” value (LXRβ [6]) was 95.64%, the “Plasma LDL, HDL and TG” value (cynomolgus monkeys) was “increased LDL and HDL at 7 days treatment only, with no effect on TG” and the “Effect on NCOR2 binding to LXRβ” value (LXRβ [7]) was “displacement of NCOR2 from both LXR isoforms”. The activity at 1 µM (LXRβ [7]) was 92.3%.
For `CC(C)(O)c1cn(-c2ccc(-c3cccc(S(C)(=O)=O)c3)cc2)c(C(C)(C)c2ccccc2Cl)n1` [XL652], the activity at 1 µM (LXRα [1]) was 100%, the “Effect on NCOR2 binding to LXRα” value (LXRα [1]) was “weakly destabilized the NCOR2 complex with both LXR isoforms” and the activity at 1 µM (LXRα [2]) was 97%. For the same compound, the “Effect on SMRT2 binding to LXRα” value (LXRα [2]; monoplex CRT) was “stabilization of SMRT2 corepressor binding to LXRα”, the “SRE activation response/phenotype in HepG2” value [8] was “little or no activation of SRE at submicromolar concentrations” and the “Efficacy of SRE activation at concentrations ≤1 µM” value ([8]; concentrations ≤1 µM) was 20–25 % of T0. For the same compound, the activity at 1 µM (LXRβ [3]; [10]) was 102%, the “Effect on SMRT2 binding to LXRβ” value (LXRβ [3]; monoplex CRT) was “did not perturb SMRT2 binding to LXRβ” and the “Plasma TGs” value (mice) was “elevated plasma TGs only at the highest dose”. The “Corepressor (NCOR2, SMRT2) displacement or stabilization, across LXR isoforms” value (LXR [9]) was “strongly stabilized the corepressor-bound conformation”, the activity at 1 µM (LXRβ [7]; [10]) was 107% and the “Effect on NCOR2 binding to LXRβ” value (LXRβ [7]) was “weakly destabilized the NCOR2 complex with both LXR isoforms”.
In the case of `CC1(C)CCC(C)(C)c2cc(C3(c4ccc(C(=O)O)cc4)OCCO3)ccc21` [SR11237], the “RXRα CRT response” value (RXRα) is reported as “RXRα-selective full agonists”.
